The NIST ThermoML archive (doi:10.1016/j.fluid.2014.04.002)

Legend:
[1] = xn = mol fraction of the nth substance listed; settings: 101 kPa, Liquid; for viscosity: Concentric cylinders viscometry; for mass density: Vibrating tube method
[2] = refractive index (Na D-line) (dimensionless); xn = mol fraction of the nth substance listed; settings: 101 kPa, Liquid, Standard Abbe refractometry
[3] = 101 kPa, Liquid; for viscosity: Concentric cylinders viscometry; for mass density: Vibrating tube method
[4] = refractive index (Na D-line) (dimensionless); settings: 101.33 kPa, Liquid, Standard Abbe refractometry

OCCCO [propan-1,3-diol] + CCOC(=O)C(C)O
x2 = 0
Settings | mass density, [1] [kg/m3] | refractive index, [2] | viscosity, [1] [mPa·s]
288.15 K | 1055.89 | 1.44091 | 67.3
293.15 K | 1052.8 | 1.43949 | 52.52
298.15 K | 1049.69 | 1.43808 | 41.51
303.15 K | 1046.57 | 1.43667 | 33.2
308.15 K | 1043.43 | 1.43526 | 26.86
313.15 K | 1040.28 | 1.43384 | 21.97
318.15 K | 1037.11 | 1.43243 | 18.14
323.15 K | 1033.91 | 1.43101 | 15.2

CC(O)CO (stereo unspecified) [1,2-propanediol] + CCOC(=O)C(C)O
x2 = 0
Settings | mass density, [1] [kg/m3] | refractive index, [2] | viscosity, [1] [mPa·s]
288.15 K | 1039.87 | 1.43437 | 82.54
293.15 K | 1036.25 | 1.4327 | 56.62
298.15 K | 1032.59 | 1.43102 | 44.03
303.15 K | 1028.88 | 1.42934 | 33.16
308.15 K | 1025.14 | 1.42764 | 25.45
313.15 K | 1021.35 | 1.42591 | 19.85
318.15 K | 1017.52 | 1.4242 | 15.73
323.15 K | 1013.66 | 1.42246 | 12.64

CCOC(=O)C(C)O (racemic) [DL-ethyl lactate]
Settings | mass density, [3] [kg/m3] | refractive index, [4] | viscosity, [3] [mPa·s]
288.15 K | 1039.28 | 1.41537 | 3.207
293.15 K | 1033.84 | 1.41307 | 2.75
298.15 K | 1028.39 | 1.41076 | 2.39
303.15 K | 1022.92 | 1.40843 | 2.097
308.15 K | 1017.42 | 1.4061 | 1.858
313.15 K | 1011.9 | 1.40374 | 1.658
318.15 K | 1006.36 | 1.40136 | 1.491
323.15 K | 1000.79 | 1.39898 | 1.349

CCOC(=O)C(C)O (stereo not drawn) [DL-ethyl lactate] + COCCOCCOCCOCCOC
x1 = 1
Settings | mass density, [1] [kg/m3] | refractive index, [2] | viscosity, [1] [mPa·s]
288.15 K | 1039.28 | 1.41537 | 3.207
293.15 K | 1033.84 | 1.41307 | 2.75
298.15 K | 1028.39 | 1.41076 | 2.39
303.15 K | 1022.92 | 1.40843 | 2.097
308.15 K | 1017.42 | 1.4061 | 1.858
313.15 K | 1011.9 | 1.40374 | 1.658
318.15 K | 1006.36 | 1.40136 | 1.491
323.15 K | 1000.79 | 1.39898 | 1.349
